This note sets out measurements from patent US9580416B2, “Inhibitors of Bruton's tyrosine kinase” (PHARMACYCLICS LLC, priority 2014, dated 2017).

Holding throughout (format): biochemical
One test concerns the target Lck (Homo sapiens, UniProt P06239). Put plainly: Lck kinase activity, TR-FRET assay. As to conditions: read-out: LCK (IC50). The essentials:
(§1)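 Enzyme (Btk 0.5 nM; Lck 6 nM) reacted 1 h with inhibitor, ATP at Km and biotin-peptide substrate in pH 7.4 buffer, 10% DMSO. Phosphopeptide detected by Eu-p-Tyr100 antibody plus streptavidin-APC (665/615 nm). IC50 calculated from fitted Ki(app) via ATP/Km correction plus half total enzyme.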

The next test deals with EGFR (Homo sapiens, UniProt P00533). The experiment in a line: Inhibition of a panel of kinases, in vitro HotSpot kinase assay: EGFR. How it is done:
(§2) The degree of inhibition of a panel of kinases is determined using the in vitro HotSpot kinase assay (purified enzymes, ^33P-ATP, an appropriate substrate and 1 uM ATP).

Another test addresses T1, JAK3 (Homo sapiens, UniProt P52333).
T1 sequence (P52333 1-1124): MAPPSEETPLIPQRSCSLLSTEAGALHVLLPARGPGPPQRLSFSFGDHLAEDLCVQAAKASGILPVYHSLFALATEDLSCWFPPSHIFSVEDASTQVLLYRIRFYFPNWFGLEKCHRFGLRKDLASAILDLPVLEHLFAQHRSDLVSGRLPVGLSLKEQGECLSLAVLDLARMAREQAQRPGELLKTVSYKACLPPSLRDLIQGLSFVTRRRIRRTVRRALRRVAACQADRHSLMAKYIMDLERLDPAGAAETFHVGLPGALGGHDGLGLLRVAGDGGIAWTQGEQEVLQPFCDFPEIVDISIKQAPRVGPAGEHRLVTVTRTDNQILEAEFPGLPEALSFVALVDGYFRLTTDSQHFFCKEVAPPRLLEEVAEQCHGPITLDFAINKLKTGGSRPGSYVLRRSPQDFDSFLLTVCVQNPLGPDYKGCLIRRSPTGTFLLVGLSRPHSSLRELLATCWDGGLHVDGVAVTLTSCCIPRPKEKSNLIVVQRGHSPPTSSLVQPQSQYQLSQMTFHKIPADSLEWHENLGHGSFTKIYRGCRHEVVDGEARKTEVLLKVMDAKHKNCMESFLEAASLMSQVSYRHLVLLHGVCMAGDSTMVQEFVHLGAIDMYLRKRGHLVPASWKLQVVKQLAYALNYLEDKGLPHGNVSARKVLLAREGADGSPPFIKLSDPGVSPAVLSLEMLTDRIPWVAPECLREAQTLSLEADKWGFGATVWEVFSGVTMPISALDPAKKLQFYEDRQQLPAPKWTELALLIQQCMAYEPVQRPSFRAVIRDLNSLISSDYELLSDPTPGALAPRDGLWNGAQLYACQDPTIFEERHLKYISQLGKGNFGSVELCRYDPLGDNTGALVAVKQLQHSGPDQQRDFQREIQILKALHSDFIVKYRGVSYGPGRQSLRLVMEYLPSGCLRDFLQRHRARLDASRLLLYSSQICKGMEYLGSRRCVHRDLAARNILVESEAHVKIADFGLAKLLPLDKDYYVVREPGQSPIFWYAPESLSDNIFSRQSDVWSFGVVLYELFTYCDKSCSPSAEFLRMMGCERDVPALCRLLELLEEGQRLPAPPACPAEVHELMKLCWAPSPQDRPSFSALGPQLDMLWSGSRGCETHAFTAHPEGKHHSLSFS
The experiment in a line: Inhibition of a panel of kinases, in vitro HotSpot kinase assay: JAK3. How it is done: as §2

A further test deals with Btk (Homo sapiens, UniProt Q06187). The experiment in a line: Btk kinase activity, TR-FRET assay. The conditions noted are these: read-out: Btk (IC50). The essentials: as §1
Chain of Btk (Q06187 whole entry): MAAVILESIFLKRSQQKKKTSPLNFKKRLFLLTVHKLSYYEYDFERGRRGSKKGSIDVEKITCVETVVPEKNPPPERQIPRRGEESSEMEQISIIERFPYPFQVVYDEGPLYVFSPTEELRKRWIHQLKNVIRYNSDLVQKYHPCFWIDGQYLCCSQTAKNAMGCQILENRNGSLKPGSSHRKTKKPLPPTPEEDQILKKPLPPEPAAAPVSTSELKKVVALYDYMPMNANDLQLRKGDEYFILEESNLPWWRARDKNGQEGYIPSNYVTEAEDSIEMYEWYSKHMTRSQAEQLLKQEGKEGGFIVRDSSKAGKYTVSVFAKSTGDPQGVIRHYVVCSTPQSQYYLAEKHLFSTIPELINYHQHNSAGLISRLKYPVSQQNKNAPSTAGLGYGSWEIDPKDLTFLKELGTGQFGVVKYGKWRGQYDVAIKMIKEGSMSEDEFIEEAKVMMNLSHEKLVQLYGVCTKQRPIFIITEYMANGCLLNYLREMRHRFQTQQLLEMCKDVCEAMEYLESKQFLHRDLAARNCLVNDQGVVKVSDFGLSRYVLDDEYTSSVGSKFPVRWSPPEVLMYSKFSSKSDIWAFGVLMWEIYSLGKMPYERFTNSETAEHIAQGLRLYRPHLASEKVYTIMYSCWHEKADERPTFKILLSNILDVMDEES

Chain of EGFR (P00533 25-1210): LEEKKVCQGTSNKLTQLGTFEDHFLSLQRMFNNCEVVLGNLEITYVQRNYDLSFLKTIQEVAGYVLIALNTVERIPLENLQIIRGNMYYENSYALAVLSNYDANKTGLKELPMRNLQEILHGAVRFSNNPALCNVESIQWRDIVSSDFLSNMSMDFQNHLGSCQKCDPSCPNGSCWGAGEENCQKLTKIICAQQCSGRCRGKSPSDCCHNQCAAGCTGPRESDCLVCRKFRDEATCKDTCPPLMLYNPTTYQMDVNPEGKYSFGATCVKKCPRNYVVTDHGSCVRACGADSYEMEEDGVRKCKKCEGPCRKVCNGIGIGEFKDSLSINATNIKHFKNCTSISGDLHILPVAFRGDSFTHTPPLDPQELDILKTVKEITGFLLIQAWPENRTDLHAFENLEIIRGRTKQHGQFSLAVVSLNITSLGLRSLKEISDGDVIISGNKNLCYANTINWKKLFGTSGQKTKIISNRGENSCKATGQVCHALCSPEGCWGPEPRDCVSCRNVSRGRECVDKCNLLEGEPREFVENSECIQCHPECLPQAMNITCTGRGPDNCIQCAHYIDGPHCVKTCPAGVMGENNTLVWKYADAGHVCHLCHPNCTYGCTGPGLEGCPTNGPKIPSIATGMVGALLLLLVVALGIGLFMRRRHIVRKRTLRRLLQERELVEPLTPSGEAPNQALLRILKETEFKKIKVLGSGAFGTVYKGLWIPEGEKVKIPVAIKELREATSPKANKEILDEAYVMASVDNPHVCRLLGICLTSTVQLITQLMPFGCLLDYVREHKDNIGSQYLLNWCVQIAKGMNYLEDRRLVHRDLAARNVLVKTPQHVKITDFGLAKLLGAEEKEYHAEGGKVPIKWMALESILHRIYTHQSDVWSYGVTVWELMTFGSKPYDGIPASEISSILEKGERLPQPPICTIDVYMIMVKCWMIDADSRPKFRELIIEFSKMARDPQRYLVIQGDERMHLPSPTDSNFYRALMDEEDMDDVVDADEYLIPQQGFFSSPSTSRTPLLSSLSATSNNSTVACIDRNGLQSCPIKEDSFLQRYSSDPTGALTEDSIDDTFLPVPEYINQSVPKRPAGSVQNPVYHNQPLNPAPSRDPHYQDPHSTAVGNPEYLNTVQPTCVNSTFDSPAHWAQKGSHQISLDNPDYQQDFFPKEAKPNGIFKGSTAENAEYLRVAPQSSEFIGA
Chain of Lck (P06239 whole entry, species assumed): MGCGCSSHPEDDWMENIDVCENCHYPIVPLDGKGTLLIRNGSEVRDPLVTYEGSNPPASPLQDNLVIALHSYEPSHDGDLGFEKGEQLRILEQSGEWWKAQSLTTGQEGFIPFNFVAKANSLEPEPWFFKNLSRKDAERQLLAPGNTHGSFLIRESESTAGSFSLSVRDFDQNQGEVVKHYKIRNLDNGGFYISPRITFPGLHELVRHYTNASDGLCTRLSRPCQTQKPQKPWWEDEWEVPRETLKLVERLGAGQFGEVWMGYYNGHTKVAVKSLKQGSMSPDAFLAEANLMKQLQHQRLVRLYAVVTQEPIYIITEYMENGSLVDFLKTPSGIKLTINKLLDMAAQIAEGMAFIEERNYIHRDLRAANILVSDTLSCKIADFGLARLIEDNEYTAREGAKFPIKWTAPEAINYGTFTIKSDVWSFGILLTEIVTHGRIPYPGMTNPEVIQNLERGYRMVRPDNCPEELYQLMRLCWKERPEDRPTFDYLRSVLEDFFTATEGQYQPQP

On to `Cc1ccnc(NC(=O)c2ccc(Oc3ccnc4[nH]nc(N[C@@H]5CCCN(C(=O)C6CC6)C5)c34)cc2)c1` [compound 100, 4-[(3-{[(3R)-1-cyclopropanecarbonylpiperidin-3-yl]amino}-1H-pyrazolo[3,4-b]pyridin-4-yl)oxy]-N-(4-methylpyridin-2-yl)benzamide], for which the IC50 was 100 to 1000 nM at Lck, 1000 to 10000 nM against EGFR, over 10000 nM against JAK3 and under 100 nM at Btk.
As to `Cc1ccnc(NC(=O)c2ccc(Oc3ccnc4[nH]nc(N[C@@H]5CCCN(C#N)C5)c34)cc2)c1` [compound 276, (R)-4-(3-(1-cyanopiperidin-3-ylamino)-1H-pyrazolo[3,4-b]pyridin-4-yloxy)-N-(4-methylpyridin-2-yl)benzamide], the 50% inhibitory concentration (IC50) on Lck was 100 to 1000 nM; on EGFR, 1000 to 10000 nM; on JAK3, over 10000 nM; at Btk it was under 100 nM.
In the same order, the values of `Cc1ccnc(NC(=O)c2ccc(Oc3ccnc4[nH]nc(N[C@@H]5CCCN(C(=O)c6ccccc6)C5)c34)cc2)c1` [compound 109, 4-[(3-{[(3R)-1-benzoylpiperidin-3-yl]amino}-1H-pyrazolo[3,4-b]pyridin-4-yl)oxy]-N-(4-methylpyridin-2-yl)benzamide] are 1000 to 10000 nM, over 10000 nM, over 10000 nM and under 100 nM.
Take `Cc1ccnc(NC(=O)c2ccc(Oc3ccnc4[nH]nc(N[C@@H]5CCCN(C(=O)C6CCNCC6)C5)c34)cc2)c1` [compound 96, N-(4-methylpyridin-2-yl)-4-[(3-{[(3R)-1-(piperidin-4-carbonyl)piperidin-3-yl]amino}-1H-pyrazolo[3,4-b]pyridin-4-yl)oxy]benzamide]: the half-inhibitory concentration (IC50) is 100 to 1000 nM on Lck, 1000 to 10000 nM at EGFR, over 10000 nM at JAK3 and under 100 nM on Btk.
The corresponding values for `CCNC(=O)N1CCC[C@@H](Nc2n[nH]c3nccc(Oc4ccc(-c5nc6ccccc6[nH]5)cc4)c23)C1` [compound 224, (3R)-3-({4-[4-(1H-1,3-benzodiazol-2-yl)phenoxy]-1H-pyrazolo[3,4-b]pyridin-3-yl}amino)-N-ethylpiperidine-1-carboxamide] are 1000 to 10000 nM, over 10000 nM, over 10000 nM and 1000 to 10000 nM.
In the same order, the values of `COCC#CC(=O)N1CCC[C@@H](Nc2n[nH]c3nccc(Oc4ccc(C(=O)Nc5cc(C)ccn5)cc4)c23)C1` [compound 281, (R)-4-(3-(1-(4-methoxybut-2-ynoyl)piperidin-3-ylamino)-1H-pyrazolo[3,4-b]pyridin-4-yloxy)-N-(4-methylpyridin-2-yl)benzamide] are 1000 to 10000 nM, 1000 to 10000 nM, 100 to 1000 nM and under 100 nM.
The corresponding values for `Cc1ccnc(NC(=O)c2ccc(Oc3ccnc4[nH]nc(N[C@@H]5CCCN(C(=O)C6(C#N)CC6)C5)c34)cc2)c1` [compound 101, 4-[(3-{[(3R)-1-(1-cyanocyclopropanecarbonyl)piperidin-3-yl]amino}-1H-pyrazolo[3,4-b]pyridin-4-yl)oxy]-N-(4-methylpyridin-2-yl)benzamide] are 100 to 1000 nM, over 10000 nM, over 10000 nM and under 100 nM.
With `O=C(Nc1cc(C(F)(F)F)ccn1)c1ccc(Oc2ccnc3[nH]nc(C4CCCN(C(=O)C5CC5)C4)c23)cc1` (centres unmarked) [compound 218, 4-{[3-(1-cyclopropanecarbonylpiperidin-3-yl)-1H-pyrazolo[3,4-b]pyridin-4-yl]oxy}-N-[4-(trifluoromethyl)pyridin-2-yl]benzamide], the concentration for half-maximal inhibition (IC50) at Lck was 1000 to 10000 nM; on EGFR, 1000 to 10000 nM; against JAK3, over 10000 nM; at Btk it was 100 to 1000 nM.
On to `COCCC(=O)N1CCC[C@@H](Nc2n[nH]c3nccc(Oc4ccc(C(=O)Nc5cc(C)ccn5)cc4)c23)C1` [compound 119, 4-[(3-{[(3R)-1-(3-methoxypropanoyl)piperidin-3-yl]amino}-1H-pyrazolo[3,4-b]pyridin-4-yl)oxy]-N-(4-methylpyridin-2-yl)benzamide], for which the IC50 is 100 to 1000 nM at Lck, 1000 to 10000 nM on EGFR, over 10000 nM on JAK3 and under 100 nM at Btk.
The corresponding values for `Cc1cccc(NC(=O)c2ccc(Oc3ccnc4[nH]nc(N[C@@H]5CCCN(C(=O)C6(C)CCOCC6)C5)c34)cc2)n1` [compound 114, 4-[(3-{[(3R)-1-(4-methyloxane-4-carbonyl)piperidin-3-yl]amino}-1H-pyrazolo[3,4-b]pyridin-4-yl)oxy]-N-(6-methylpyridin-2-yl)benzamide] are 1000 to 10000 nM, over 10000 nM, over 10000 nM and 100 to 1000 nM.
The corresponding values for `Cc1cnc(NC(=O)c2ccc(Oc3ccnc4[nH]nc(N[C@@H]5CCN(C(=O)C6CC6)C5)c34)cc2)s1` [compound 200, 4-[(3-{[(3R)-1-cyclopropanecarbonylpyrrolidin-3-yl]amino}-1H-pyrazolo[3,4-b]pyridin-4-yl)oxy]-N-(5-methyl-1,3-thiazol-2-yl)benzamide] are 1000 to 10000 nM, 1000 to 10000 nM, over 10000 nM and under 100 nM.
In the same order, the values of `Cc1ccnc(NC(=O)c2ccc(Oc3ccnc4[nH]nc(N[C@@H]5CCCN(S(C)(=O)=O)C5)c34)cc2)c1` [compound 269, (R)-N-(4-methylpyridin-2-yl)-4-(3-(1-(methylsulfonyl)piperidin-3-ylamino)-1H-pyrazolo[3,4-b]pyridin-4-yloxy)benzamide] are 100 to 1000 nM, 1000 to 10000 nM, over 10000 nM and under 100 nM.
Consider `Cc1ccnc(NC(=O)c2ccc(Oc3ccnc4[nH]nc(N[C@@H]5CCCN(C(=O)C6(C)CCNCC6)C5)c34)cc2)c1` [compound 104, 4-[(3-{[(3R)-1-(4-methylpiperidine-4-carbonyl)piperidin-3-yl]amino}-1H-pyrazolo[3,4-b]pyridin-4-yl)oxy]-N-(4-methylpyridin-2-yl)benzamide], for which the half-inhibitory concentration (IC50) at Lck is 100 to 1000 nM; against EGFR, 1000 to 10000 nM; on JAK3, over 10000 nM; at Btk, under 100 nM.
The corresponding values for `CC#CC(=O)N1CCC[C@@H](Nc2n[nH]c3nccc(Oc4ccc(C(=O)Nc5cc(C)ccn5)cc4)c23)C1` [compound 280, (R)-4-(3-(1-but-2-ynoylpiperidin-3-ylamino)-1H-pyrazolo[3,4-b]pyridin-4-yloxy)-N-(4-methylpyridin-2-yl)benzamide] are 100 to 1000 nM, over 10000 nM, over 10000 nM and under 100 nM.
Turning to `Cc1cnc(NC(=O)c2ccc(Oc3ccnc4[nH]nc(C5CCCN(C(=O)C6CCN(C)CC6)C5)c34)cc2)s1` (centres unmarked) [compound 217, N-(5-methyl-1,3-thiazol-2-yl)-4-({3-[1-(1-methylpiperidine-4-carbonyl)piperidin-3-yl]-1H-pyrazolo[3,4-b]pyridin-4-yl}oxy)benzamide], the half-inhibitory concentration (IC50) at Lck was 1000 to 10000 nM; on EGFR, 1000 to 10000 nM; against JAK3 it was over 10000 nM; at Btk it was 100 to 1000 nM.
For `C=CC(=O)N1CCC[C@@H](Nc2n[nH]c3nccc(Oc4ccc(Oc5ccccc5)cc4)c23)C1` [compound 6, 1-[(3R)-3-{[4-(4-phenoxyphenoxy)-1H-pyrazolo[3,4-b]pyridin-3-yl]amino}piperidin-1-yl]prop-2-en-1-one], the IC50 was under 100 nM at Lck, under 100 nM on EGFR, 100 to 1000 nM on JAK3 and under 100 nM on Btk.
In the case of `CCNC(=O)N1CC[C@@H](Nc2n[nH]c3nccc(Oc4ccc(C(=O)Nc5cc(C(F)(F)F)ccn5)cc4)c23)C1` [compound 188], the IC50 on Lck was 100 to 1000 nM; at EGFR, 1000 to 10000 nM; at JAK3, over 10000 nM; on Btk, under 100 nM.
